# Like-named read-outs stand apart in the source and are kept apart here.
# Legend:
# K-RAS4B^G12D [1] = target: T1, K-RAS4B^G12D (Homo sapiens, UniProt P01116, G12D); assay: biochemical; details: for IC50: K-RAS4B GDP/GTP exchange, eight data points, at least three determinations
# K-RAS4B wild-type = K-RAS4B wild-type (Homo sapiens, UniProt P01116); assay: Nucleotide exchange assay (SOS1-mediated GDP/GTP exchange, GDP-Glo), K-RAS4B wild-type; type: biochemical; details: K-RAS4B GDP/GTP exchange; eight data points, at least three determinations; (*) single determination
# K-RAS4B G12V = K-RAS4B G12V (Homo sapiens, UniProt P01116, G12V); assay: Nucleotide exchange assay (SOS1-mediated GDP/GTP exchange, GDP-Glo), K-RAS4B G12V; type: biochemical; details: eight data points, at least three determinations, (*) single determination
# K-RAS4B^G12D [2] = target: T1, K-RAS4B^G12D; assay: cell-based; set-up: a fusion protein of LgBiT and full-length RAS; a fusion protein of SmBiT(q) and full-length RAS in cells; expressed in transfected cells; host or cells: HEK239T (so in the source); details: live cells; displacement of BI2852 from the K-Ras4B SI/II binding-site; read-out: K-RAS4B^G12D NanoBRET TE KD
# Excerpt: To obtain further information on the mode of action, selected GDP/GTP exchange inhibitors were studied in additional assays (Table 3). A target engagement assay, which is based on bioluminescence resonance energy transfer (BRET), was used to measure target engagement at protein complexes in live cells (Fig. 5a). The BRET effect results from an energy transfer between the target luciferase fusion protein and a cell-permeable fluorescent tracer in intact cells.
# Fig. 5 Schematic illustrations of the RAS cellular target engagement and RAS:SOS protein–protein interaction assay. (a) NanoBRET target engagement (TE) assay: when the fusion proteins LgBiT-RAS and SmBiT(q)-RAS interact in live-cells, they form an active luciferase as a BRET donor. The BRET receptor is a fluorescent NanoBRET® tracer that binds specifically to K-RAS. K-RAS binders displace the tracer and reduce the BRET signal in a dose-dependent manner.
# The NanoBRET® TE Intracellular RAS Assay uses NanoBiT® Technology, a structural complementation system comprised of a large luciferase subunit (LgBiT) and a small complementary peptide (SmBiT(q)). Specifically, a fusion protein of LgBiT and full-length RAS is co-expressed with a fusion protein of SmBiT(q) and full-length RAS in cells. When the RAS proteins interact and form multimers, the LgBiT and SmBiT(q) subunits come together to form an active luciferase enzyme that serves as the BRET donor. The energy acceptor is a cell-permeable fluorescent NanoBRET® tracer that binds specifically to RAS. […] After mixing the plate for 1 min and incubation at room temperature for 15 min 1 μL of NanoBRET TE RAS Tracer 01 (final concentration 1 μM) was added followed by another mixing step. After 2 h incubation (37 °C, 5% CO2) and 15 min at room temperature 5 μL of NanoBRET™ Nano-Glo® substrate was added followed by a mixing step.
# [3] = target: (GTP)K-RAS4B^wt:SOS1 complex (Homo sapiens, UniProt P01116+Q07889); assay: HTRF K-RAS^wt:SOS protein-protein interaction assay
# Procedure: The interaction of (GTP)K-RAS4B^wt and SOS was measured with a HTRF assay using an SOS-specific antibody labeled with terbium cryptate as HTRF (homogeneous time-resolved fluorescence) donor and a K-RAS4B^wt specific antibody labeled with an HTRF acceptor (XL665).[52]
# To test the compounds effect on the interaction of K-RAS and SOS1 proteins a commercial assay from Revvity (product code 64[sequence]) was used. The K-RAS WT/SOS1 PPI assay includes tagged human recombinant partners (K-RAS WT and SOS1) and labelled anti-tag reagents for HTRF detection. Without an inhibitor, K-RAS WT loaded with GTP binds to SOS1, and the binding of each detection reagent to its tagged target generates an HTRF signal. In the presence of K-RAS WT/SOS1 inhibitors or GTP competitors, the HTRF signal decreases.
# After an incubation step for 10 min at room temperature 3 μL Tag1-KRAS protein was added followed by 7.5 μL detection mix containing anti-Tag2 antibody labeled with Terbium cryptate and anti-Tag1 antibody labeled with XL665. […] IC50 values were determined from the sigmoidal dose response curves with the Scigilian Analyze software (Scigilian, Monteral, Canada).
# [4] = K-RAS4B form mostly not given, inactive = IC50 > 100 μM (Fig. 3 legend)
SMILES,IC50 (K-RAS4B^G12D [1]),inhibition of GDP/GTP exchange (in words) (K-RAS4B^G12D [1]; [4]),solubility (Solubility),IC50 (K-RAS4B wild-type),IC50 (K-RAS4B G12V),further results
"C=C(C)[C@@H]1CC[C@]2(C(=O)O)CC[C@]3(C)[C@H](CC[C@@H]4[C@@]5(C)CC[C@H](O)C(C)(C)[C@@H]5CC[C@]43C)[C@@H]12 [Compound 2, betulinic acid]",> 300 µM,–,–,–,–,–
"C[C@H]1[C@H](C)CC[C@]2(C(=O)O)CC[C@]3(C)C(=CC[C@@H]4[C@@]5(C)CC[C@H](O)C(C)(C)[C@@H]5CC[C@]43C)[C@H]12 [Compound 4, Ursolic acid]",> 300 µM,–,–,–,–,–
C=C(C)[C@@H]1CC[C@]2(C(=O)O)CC[C@]3(C)[C@H](CC[C@@H]4[C@@]5(C)CC[C@H](OC(C)=O)C(C)(C)[C@@H]5CC[C@]43C)[C@@H]12 [Compound 8],–,inactive,–,–,–,–
C=C(C)[C@@H]1CC[C@]2(C(=O)O)CC[C@]3(C)[C@H](CC[C@@H]4[C@@]5(C)CC[C@H](OC(=O)c6ccccc6)C(C)(C)[C@@H]5CC[C@]43C)[C@@H]12 [Compound 9],–,inactive,–,–,–,–
C=C(C)[C@@H]1CC[C@]2(C(=O)OC)CC[C@]3(C)[C@H](CC[C@@H]4[C@@]5(C)CC[C@H](O)C(C)(C)[C@@H]5CC[C@]43C)[C@@H]12 [Compound 10],–,inactive,–,–,–,–
C=C(C)[C@@H]1CC[C@]2(C(=O)NCC(=O)O)CC[C@]3(C)[C@H](CC[C@@H]4[C@@]5(C)CC[C@H](O)C(C)(C)[C@@H]5CC[C@]43C)[C@@H]12 [Compound 12],–,inactive,–,–,–,–
C=C(C)[C@@H]1CC[C@]2(C(=O)On3nnc4cccnc43)CC[C@]3(C)[C@H](CC[C@@H]4[C@@]5(C)CC[C@H](O)C(C)(C)[C@@H]5CC[C@]43C)[C@@H]12 [Compound 13],–,inactive,–,–,–,–
CC(C=O)[C@@H]1CC[C@]2(C(=O)O)CC[C@]3(C)[C@H](CC[C@@H]4[C@@]5(C)CC[C@H](OC(=O)c6ccccc6C(=O)O)C(C)(C)[C@@H]5CC[C@]43C)[C@@H]12 (some centres unmarked) [Compound 14],48.5 ± 12.7 µM,–,447 µM,37.3 ± 19.1 µM,51.1 ± 6.2 µM,solubility (in words) (Solubility): well soluble
C=C(C)[C@@H]1CC[C@]2(C(=O)NCCN)CC[C@]3(C)[C@H](CC[C@@H]4[C@@]5(C)CC[C@H](O)C(C)(C)[C@@H]5CC[C@]43C)[C@@H]12 [Compound 17],–,inactive,–,–,–,–
"C=C(C)[C@@H]1CC[C@]2(C(=O)O)CC[C@]3(C)[C@H](CC[C@@H]4[C@@]5(C)CCC(=O)C(C)(C)[C@@H]5CC[C@]43C)[C@@H]12 [Compound 20, betulonic acid]",–,inactive,–,–,–,–
C=C(C)[C@@H]1CC[C@]2(C(=O)NCC(=O)OCC)CC[C@]3(C)[C@H](CC[C@@H]4[C@@]5(C)CC[C@H](O)C(C)(C)[C@@H]5CC[C@]43C)[C@@H]12 [Compound 21],–,–,–,–,–,inhibition of GDP/GTP exchange (in words) (K-RAS4B^G12D [1]): inactive
C=C(C)[C@@H]1CC[C@]2(C(=O)O)CC[C@]3(C)[C@H](CC[C@@H]4[C@@]5(C)CC[C@H](OC(=O)c6cc7ccccc7cc6C(=O)O)C(C)(C)[C@@H]5CC[C@]43C)[C@@H]12 [Compound 22],–,–,–,–,–,inhibition of GDP/GTP exchange (in words) (K-RAS4B^G12D [1]): loss of GDP/GTP exchange inhibition
COC(=O)[C@]12CC[C@@H](C(C)C(=O)O)[C@@H]1[C@H]1CC[C@@H]3[C@@]4(C)CC[C@H](OC(C)=O)C(C)(C)[C@@H]4CC[C@@]3(C)[C@]1(C)CC2 (some centres unmarked) [Compound 27],13.8 ± 4.2 µM,–,–,–,–,–
C=C(C)[C@@H]1CC[C@]2(COC(=O)CCC(=O)O)CC[C@]3(C)[C@H](CC[C@@H]4[C@@]5(C)CC[C@H](O)C(C)(C)[C@@H]5CC[C@]43C)[C@@H]12 [Compound 31],10.4 ± 0.8 µM,–,–,25.6 ± 4.3 µM,12.7 ± 5.5 µM,–
C=C(C)[C@@H]1CC[C@]2(COC(=O)CCC(=O)O)CC[C@]3(C)[C@H](CC[C@@H]4[C@@]5(C)CC[C@H](OC(=O)c6c(F)ccc(F)c6C(=O)O)C(C)(C)[C@@H]5CC[C@]43C)[C@@H]12 [Compound 33],1.45 ± 0.93 µM,–,416 µM,2.09 ± 0.59 µM,2.13 ± 0.87 µM,Kd (K-RAS4B^G12D [2]): 26.4 µM; Kd [3]: 37.4 µM
C=C(C)[C@@H]1CC[C@]2(CN)CC[C@]3(C)[C@H](CC[C@@H]4[C@@]5(C)CC[C@H](O)C(C)(C)[C@@H]5CC[C@]43C)[C@@H]12 [Compound 35],–,–,–,–,–,inhibition of GDP/GTP exchange (in words) (K-RAS4B^G12D [1]): inactive
COc1cc(C(=O)O)c(C(=O)O[C@H]2CC[C@]3(C)[C@H]4CC=C5[C@@H]6[C@@H](C)[C@H](C)CC[C@]6(C(=O)O)CC[C@@]5(C)[C@]4(C)CC[C@H]3C2(C)C)cc1OC [Compound 38],55.6 ± 6.5 µM,–,383 µM,53.6 ± 7.3 µM,–,–
CC1(C)CC[C@]2(C(=O)Nc3nnn[nH]3)CC[C@]3(C)C(=CC[C@@H]4[C@@]5(C)CC[C@H](O)C(C)(C)[C@@H]5CC[C@]43C)[C@@H]2C1 [Compound 39],27.8 ± 2.6 µM,–,–,12.8 ± 2.9 µM,9.18 ± 0.99 µM,–
CC1(C)CC[C@]2(C(=O)NCCN)CC[C@]3(C)C(=CC[C@@H]4[C@@]5(C)CC[C@H](O)C(C)(C)[C@@H]5CC[C@]43C)[C@@H]2C1 [Compound 40],–,inactive,–,–,–,–
CC1(C)CC[C@]2(C(=O)NO)CC[C@]3(C)C(=CC[C@@H]4[C@@]5(C)CC[C@H](OC(=O)c6cc(F)c(F)cc6C(=O)O)C(C)(C)[C@@H]5CC[C@]43C)[C@@H]2C1 [Compound 41],7.61 ± 0.7 µM,–,–,4.68 µM,5.47 µM,–
"CC1(C)CC[C@]2(C(=O)O)CC[C@]3(C)C(=CC[C@@H]4[C@@]5(C)CC[C@H](OC(=O)c6cc(F)c(F)cc6C(=O)NO)C(C)(C)[C@@H]5CC[C@]43C)[C@@H]2C1 [Compound 42, oleanoyl 4,5-difluoro-2-(hydroxycarbamoyl)benzo-ate]",–,completely inactive,–,–,–,–
CC1(C)CC[C@]2(C(=O)O)CC[C@]3(C)C(=CC[C@@H]4[C@@]5(C)CC[C@H](OC(=O)c6cc(F)c(F)cc6C(=O)O)C(C)(C)[C@@H]5CC[C@]43C)[C@@H]2C1 [Compound 43],2.22 ± 0.29 µM,–,394 µM,1.5 ± 0.08 µM,2.71 ± 0.39 µM,–
CC1(C)CC[C@]2(C(=O)O)CC[C@]3(C)C(=CC[C@@H]4[C@@]5(C)CC[C@H](OC(=O)c6c(F)ccc(F)c6C(=O)O)C(C)(C)[C@@H]5CC[C@]43C)[C@@H]2C1 [Compound 44],2.88 ± 0.89 µM,–,424 µM,1.33 ± 0.24 µM,2.51 ± 0.24 µM,–
CC1(C)CC[C@]2(C(=O)O)CC[C@]3(C)C(=CC[C@@H]4[C@@]5(C)CC[C@H](OC(=O)c6sccc6C(=O)O)C(C)(C)[C@@H]5CC[C@]43C)[C@@H]2C1 [Compound 45],3.06 ± 0.79 µM,–,390 µM,1.52 ± 0.5 µM,5.62 ± 0.93 µM,–
CC1(C)CC[C@]2(C(=O)O)CC[C@]3(C)C(=CC[C@@H]4[C@@]5(C)CC[C@H](OC(=O)c6ccsc6C(=O)O)C(C)(C)[C@@H]5CC[C@]43C)[C@@H]2C1 [Compound 46],3.67 ± 0.35 µM,–,421 µM,4.15 ± 1.32 µM,8.12 ± 1.24 µM,–
COC(=O)c1ccccc1C(=O)O[C@H]1CC[C@]2(C)[C@H]3CC=C4[C@@H]5CC(C)(C)CC[C@]5(C(=O)O)CC[C@@]4(C)[C@]3(C)CC[C@H]2C1(C)C [Compound 48],–,completely inactive,–,–,–,–
CC1(C)CCC23CCC4(C)C5(C)CCC6C(C)(C)C(OC(=O)c7cc(F)c(F)cc7C(=O)O)CCC6(C)C5CC(O)C4(OC2=O)C3C1 (centres unmarked) [Compound 51],26.5 ± 5.9 µM,–,99 µM,7.18 ± 0.68 µM,8.57 ± 1.09 µM,–
CC1(C)CCC23CCC4(C)C5(C)CCC6C(C)(C)C(OC(=O)c7c(F)ccc(F)c7C(=O)O)CCC6(C)C5CC(O)C4(OC2=O)C3C1 (centres unmarked) [Compound 52],27.1 ± 4.2 µM,–,320 µM,10.6 ± 2.9 µM,8.7 ± 0.59 µM,–
"C#Cc1c(F)ccc2cc(O)cc(-c3ncc4c(N5CC6CCC(C5)N6)nc(OC[C@@]56CCCN5C[C@H](F)C6)nc4c3F)c12 [Compound 53, MRTX1133, reference compound]",–,–,322 µM,–,–,–
"Cn1cnc(Cn2ccc3ccc(CNCc4[nH]c5ccccc5c4C4NC(=O)c5ccc(O)cc54)cc32)c1 (centres unmarked) [Compound 54, BI2852, reference compound]",13.7 ± 5.1 µM,–,114 µM,13.4 ± 2.1 µM,10.9 ± 0.6 µM,–

# From paper PMC11719397, “Monophthalates of betulinic acid and related pentacyclic triterpenes inhibit efficiently the SOS-mediated nucleotide exchange and impact PI3K/AKT signaling in oncogenic K-RAS4B proteins” (RSC Advances, 2025)
